Measured values taken from ChEMBL document CHEMBL5380831, “Azolylpyrimidinediols as Novel Structural Scaffolds of DNA-Groove Binders against Intractable Acinetobacter baumannii” (J Med Chem, 2023).
Values after ≈ are worked out from the molar mass of the structure shown.

What was measured:
Type in all cases: functional
Escherichia coli [1] = assay: Antibacterial activity against Escherichia coli assessed as bacterial growth inhibition incubated for 24 hrs by broth microdilution method
Klebsiella pneumoniae = assay: Antibacterial activity against Klebsiella pneumoniae assessed as bacterial growth inhibition incubated for 24 hrs by broth microdilution method
Staphylococcus aureus [2] = assay: Antibacterial activity against methicillin-resistant Staphylococcus aureus assessed as bacterial growth inhibition incubated for 24 hrs by broth microdilution method
Staphylococcus aureus [3] = assay: Antibacterial activity against Staphylococcus aureus ATCC 25923 assessed as bacterial growth inhibition incubated for 24 hrs by broth microdilution method
Escherichia coli [4] = assay: Antibacterial activity against Escherichia coli ATCC 25922 assessed as bacterial growth inhibition incubated for 24 hrs by broth microdilution method
Staphylococcus aureus [5] = assay: Antibacterial activity against Staphylococcus aureus assessed as bacterial growth inhibition incubated for 24 hrs by broth microdilution method
Pseudomonas aeruginosa [6] = assay: Antibacterial activity against Pseudomonas aeruginosa assessed as bacterial growth inhibition incubated for 24 hrs by broth microdilution method
Enterococcus faecalis = assay: Antibacterial activity against Enterococcus faecalis assessed as bacterial growth inhibition incubated for 24 hrs by broth microdilution method
Acinetobacter baumannii = assay: Antibacterial activity against Acinetobacter baumannii assessed as bacterial growth inhibition incubated for 24 hrs by broth microdilution method
Pseudomonas aeruginosa [7] = assay: Antibacterial activity against Pseudomonas aeruginosa ATCC 27853 assessed as bacterial growth inhibition incubated for 24 hrs by broth microdilution method
Staphylococcus aureus [8] = assay: Antibacterial activity against Staphylococcus aureus ATCC 29213 assessed as bacterial growth inhibition incubated for 24 hrs by broth microdilution method

Row | Compound | MIC (Escherichia coli [1]) | MIC (Klebsiella pneumoniae) | MIC (Staphylococcus aureus [2]) | MIC (Staphylococcus aureus [3]) | MIC (Escherichia coli [4]) | MIC (Staphylococcus aureus [5]) | MIC (Pseudomonas aeruginosa [6]) | MIC (Enterococcus faecalis) | MIC (Acinetobacter baumannii) | MIC (Pseudomonas aeruginosa [7]) | MIC (Staphylococcus aureus [8])
1 | Clc1ccc2c3ccccc3n(-c3nccc(-n4cncn4)n3)c2c1 | 740 µM (≈ 257 µg/mL) | 740 µM (≈ 257 µg/mL) | 740 µM (≈ 257 µg/mL) | 740 µM (≈ 257 µg/mL) | 740 µM (≈ 257 µg/mL) | 740 µM (≈ 257 µg/mL) | 3 µM (≈ 1.04 µg/mL) | 185 µM (≈ 64.2 µg/mL) | 740 µM (≈ 257 µg/mL) | 740 µM (≈ 257 µg/mL) | 740 µM (≈ 257 µg/mL)
2 | CC(=O)Nc1ccc(S(=O)(=O)N2CCN(c3nccc(-n4cncn4)n3)CC2)cc1 | 598 µM (≈ 256 µg/mL) | 598 µM (≈ 256 µg/mL) | 598 µM (≈ 256 µg/mL) | 299 µM (≈ 128 µg/mL) | 598 µM (≈ 256 µg/mL) | 299 µM (≈ 128 µg/mL) | 598 µM (≈ 256 µg/mL) | 598 µM (≈ 256 µg/mL) | 598 µM (≈ 256 µg/mL) | 598 µM (≈ 256 µg/mL) | 598 µM (≈ 256 µg/mL)
3 | CCN(CC)c1nccc(-n2cncn2)n1 | 587 µM (≈ 128 µg/mL) | 1170 µM (≈ 256 µg/mL) | 1170 µM (≈ 256 µg/mL) | 587 µM (≈ 128 µg/mL) | 587 µM (≈ 128 µg/mL) | 1170 µM (≈ 256 µg/mL) | 1170 µM (≈ 256 µg/mL) | 587 µM (≈ 128 µg/mL) | 1170 µM (≈ 256 µg/mL) | 587 µM (≈ 128 µg/mL) | 587 µM (≈ 128 µg/mL)
4 | Cc1nccn1-c1nccc(N(CCO)CCO)n1 | 973 µM (≈ 256 µg/mL) | 973 µM (≈ 256 µg/mL) | 973 µM (≈ 256 µg/mL) | 973 µM (≈ 256 µg/mL) | 1950 µM (≈ 512 µg/mL) | 973 µM (≈ 256 µg/mL) | 973 µM (≈ 256 µg/mL) | 973 µM (≈ 256 µg/mL) | 973 µM (≈ 256 µg/mL) | 973 µM (≈ 256 µg/mL) | 973 µM (≈ 256 µg/mL)
5 | OCCN(CCO)c1ccnc(-n2ccnc2-c2ccccc2)n1 | 787 µM (≈ 256 µg/mL) | 787 µM (≈ 256 µg/mL) | 1580 µM (≈ 512 µg/mL) | 394 µM (≈ 128 µg/mL) | 1580 µM (≈ 512 µg/mL) | 787 µM (≈ 256 µg/mL) | 197 µM (≈ 64.1 µg/mL) | 787 µM (≈ 256 µg/mL) | 394 µM (≈ 128 µg/mL) | 787 µM (≈ 256 µg/mL) | 787 µM (≈ 256 µg/mL)
6 | Cc1ncc([N+](=O)[O-])n1-c1nccc(N(CCO)CCO)n1 | 415 µM (≈ 128 µg/mL) | 415 µM (≈ 128 µg/mL) | 831 µM (≈ 256 µg/mL) | 831 µM (≈ 256 µg/mL) | 1660 µM (≈ 512 µg/mL) | 831 µM (≈ 256 µg/mL) | 415 µM (≈ 128 µg/mL) | 831 µM (≈ 256 µg/mL) | 415 µM (≈ 128 µg/mL) | 415 µM (≈ 128 µg/mL) | 831 µM (≈ 256 µg/mL)
7 | CCc1nccn1-c1ccnc(N(CCO)CCO)n1 | 924 µM (≈ 256 µg/mL) | 1850 µM (≈ 512 µg/mL) | 924 µM (≈ 256 µg/mL) | 924 µM (≈ 256 µg/mL) | 924 µM (≈ 256 µg/mL) | 924 µM (≈ 256 µg/mL) | 924 µM (≈ 256 µg/mL) | 924 µM (≈ 256 µg/mL) | 924 µM (≈ 256 µg/mL) | 924 µM (≈ 256 µg/mL) | 924 µM (≈ 256 µg/mL)
8 | O=C1c2cccc3c(N4CCN(c5nccc(-n6cncn6)n5)CC4)ccc(c23)C(=O)N1C(CO)CO | 512 µM (≈ 256 µg/mL) | 226 µM (≈ 113 µg/mL) | 512 µM (≈ 256 µg/mL) | 64 µM (≈ 32 µg/mL) | 255 µM (≈ 128 µg/mL) | 512 µM (≈ 256 µg/mL) | 512 µM (≈ 256 µg/mL) | 256 µM (≈ 128 µg/mL) | 512 µM (≈ 256 µg/mL) | 512 µM (≈ 256 µg/mL) | 512 µM (≈ 256 µg/mL)
9 | CCCc1nccn1-c1ccnc(N(CCO)CCO)n1 | 879 µM (≈ 256 µg/mL) | 379 µM (≈ 110 µg/mL) | 879 µM (≈ 256 µg/mL) | 879 µM (≈ 256 µg/mL) | 879 µM (≈ 256 µg/mL) | 879 µM (≈ 256 µg/mL) | 879 µM (≈ 256 µg/mL) | 879 µM (≈ 256 µg/mL) | 879 µM (≈ 256 µg/mL) | 879 µM (≈ 256 µg/mL) | 879 µM (≈ 256 µg/mL)
10 | O=c1ccc2c(CN3CCN(c4nccc(-n5cncn5)n4)CC3)cc(O)cc2o1 | 632 µM (≈ 256 µg/mL) | 632 µM (≈ 256 µg/mL) | 316 µM (≈ 128 µg/mL) | 316 µM (≈ 128 µg/mL) | 633 µM (≈ 257 µg/mL) | 316 µM (≈ 128 µg/mL) | 316 µM (≈ 128 µg/mL) | 316 µM (≈ 128 µg/mL) | 158 µM (≈ 64.1 µg/mL) | 632 µM (≈ 256 µg/mL) | 632 µM (≈ 256 µg/mL)
11 | CN(CCO)c1nccc(-n2cncn2)n1 | 1160 µM (≈ 256 µg/mL) | 1160 µM (≈ 256 µg/mL) | 1160 µM (≈ 256 µg/mL) | 1160 µM (≈ 256 µg/mL) | 582 µM (≈ 128 µg/mL) | 1160 µM (≈ 256 µg/mL) | 291 µM (≈ 64.1 µg/mL) | 582 µM (≈ 128 µg/mL) | 1360 µM (≈ 300 µg/mL) | 1160 µM (≈ 256 µg/mL) | 1160 µM (≈ 256 µg/mL)
12 | O=C(CCCCl)N1CCN(c2nccc(-n3cncn3)n2)CC1 | 382 µM (≈ 128 µg/mL) | 382 µM (≈ 128 µg/mL) | 382 µM (≈ 128 µg/mL) | 382 µM (≈ 128 µg/mL) | 382 µM (≈ 128 µg/mL) | 764 µM (≈ 257 µg/mL) | 764 µM (≈ 257 µg/mL) | 382 µM (≈ 128 µg/mL) | 382 µM (≈ 128 µg/mL) | 382 µM (≈ 128 µg/mL) | 764 µM (≈ 257 µg/mL)
